Source: patent US20120141435A1, “USE OF OLIVE LEAF EXTRACTS IN A PHARMACEUTICAL COMPOSITION FOR INDUCING ANGIOGENESIS AND VASCULOGENESIS” (SANIDAD Y RESIDENCIAS 21, S.A., priority 2009, published 2012)

Test system: 6 mm excisional wounds on the back of db/db mice
Assay: Excisional wound healing in db/db mice (digital planimetry)
Assay type: in vivo, mouse
Details: topical on days 0, 2, 4, 6, 8, 10e-2, 10e-5, 10e-7 m oleuropein, treated (right) and untreated (left) wound, vs PBS
Experimental: Female db/db mice (BKS.Cg-m+/+Lepr^db) aged 10 to 12 weeks were used. They were obtained through Charles River Laboratories (Spain), the average weight of the animals upon reception was 35.64 g. Throughout the entire study, the animals were kept in animal houses particularly designed for allowing control of the animals' environment, such as relative humidity (30-70%), temperature (22±2° C.), air pressure, number of renewals and light period ( 12/12 hours of light/darkness). Access to water was “ad libitum” and the diet was a standard dry pellet diet for rats supplied by PanLab (Barcelona, Spain). After the acclimatization period, the mice were randomly distributed into the different study groups. […]
On day 0 of the experiment, two 6 mm excisional wounds were made on the back of every mouse under aseptic conditions and using surgical instruments. […] The wound healing process was tracked and evaluated throughout the experiment (see FIG. 3). […]
In order to track the wound healing, a digital planimetry method was used whereby the area of every wound was quantified. The inter-group differences have been determined by means of a two-way ANOVA statistical analysis followed by a Bonferroni post-hoc analysis. […]

VEGF was tested. Which “wound healing (wound area)” value did it give?
Its value is “healing effect”.
